≈ marks a conversion by molar mass, not a printed value.
Columns and labels:
[1] = system: β-lactamase, Pseudomonas aeruginosa GN 238; experiment: Resistant activity against β-lactamase, iodometric assay; assay type: biochemical; conditions: β-lactamase from Pseudomonas aeruginosa GN 238; Potassium Penicillin G = 100
Experimental: (3) Resistant activity against β-lactamase, Pseudomonas aerugionsa GN 238:
The resistant activity of each compound against β-lactamase was measured in the manner described below.
β-Lactamase was prepared from Pseudomonas aeruginosa GN 238. This microorganism was cultured in 100 ml of a medium containing 2 g of yeast extract, 10 g of polypeptone, 2 g of glucose, 7 g of disodium hydrogen phosphate, 2 g of potassium dihydrogen phosphate, 1.2 g of ammonium sulfate and 0.4 g of magnesium sulfate, per liter, in a 500-ml Erlenmeyer flask for 6 hrs. at 37° C. with shaking. The resulting cells were collected by centrifugation (5,000 r.p.m.×10 min.), washed three times with 0.1 M phosphate buffer (pH 7.0). Subsequently, the cells were subjected to sonication (20 KHz, 20 min.) and then centrifuged at 15,000 r.p.m. for 60 min. By using the supernatant of enzyme fluid, the resistance of each compound against β-lactamase was determined by the iodometric assay method. Each numeral shown in Table 7 is a relative activity value calculated by assuming as 100 the activity of the control Potassium Penicillin G.

[2] = system: Staphylococcus aureus; experiment: MIC against clinical isolates; assay type: cell-based; conditions: Table 5-1, clinical isolate; unit assumed
[3] = system: Proteus mirabilis; experiment: MIC against clinical isolates; assay type: cell-based; conditions: Table 5-6, clinical isolate; unit assumed
[4] = system: Proteus morganii; experiment: MIC against clinical isolates; assay type: cell-based; conditions: Table 5-6, clinical isolate; unit assumed
[5] = system: Klebsiella pneumoniae; experiment: MIC against clinical isolates; assay type: cell-based; conditions: Table 5-4, clinical isolate; unit assumed
[6] = system: Pseudomonas aeruginosa; experiment: MIC against clinical isolates; assay type: cell-based; conditions: unit assumed
[7] = system: Salmonella typhi-murium; experiment: MIC against clinical isolates; assay type: cell-based; conditions: Table 5-5, clinical isolate; unit assumed
[8] = system: Escherichia coli; experiment: MIC against clinical isolates; assay type: cell-based; conditions: Table 5-2, clinical isolate; unit assumed
[9] = system: Proteus vulgaris; experiment: MIC against clinical isolates; assay type: cell-based; conditions: Table 5-6, clinical isolate; unit assumed
[10] = system: Shigella sonnei; experiment: MIC against clinical isolates; assay type: cell-based; conditions: Table 5-5, clinical isolate; unit assumed
Experimental: (§1) The minimum inhibitory concentration (MIC) was determined by the plate method disclosed in "Chemotherapy" (Japan), Vol. 16, (1968), pages 98-99. The culture medium used was a Heart infusion agar (pH 7.4). The number of the cells per plate used in the inoculum was 10^4 (10^6 cells/ml).
(§2) MIC was determined in the same manner as in the preceding paragraph (1).

[11] = system: Shigella flexneri; experiment: MIC against clinical isolates; assay type: cell-based; conditions: Table 5-5, clinical isolate; unit assumed
Experimental: as §1, §2

[12] = system: Klebsiella pneumoniae; experiment: MIC, plate method, standard strains; assay type: cell-based; conditions: Table 3, standard strain; unit assumed
In short: (§3)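 Test compound was incorporated into Heart infusion agar at pH 7.4, plates were inoculated with 10^4 cells each (suspension at 10^6 cells/ml), and the minimum inhibitory concentration was recorded.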

[13] = system: Proteus vulgaris 3027; experiment: MIC, plate method, standard strains; assay type: cell-based; conditions: Table 3, standard strain; unit assumed
In short: as §3

[14] = system: Escherichia coli NIHJ; experiment: MIC, plate method, standard strains; assay type: cell-based; conditions: Table 3, standard strain; unit assumed
In short: as §3

[15] = system: Staphylococcus aureus 209p; experiment: MIC, plate method, standard strains; assay type: cell-based; conditions: Table 3, standard strain, Heart infusion agar pH 7.4; unit assumed
In short: as §3

Row | Compound | Relative activity (%), resistant activity against β-lactamase [1] | MIC Staphylococcus aureus F-2 [2] | MIC Staphylococcus aureus F-5 [2] | MIC Staphylococcus aureus MS 8588 [2] | MIC Staphylococcus aureus MS 8596 [2] | MIC Proteus mirabilis [3] | MIC Proteus morganii [4] | MIC Klebsiella pneumoniae GN 917 [5] | MIC Salmonella typhi-murium SL 2136 [7] | MIC Escherichia coli GN 3481 [8] | MIC Escherichia coli GN 3611 [8] | MIC Escherichia coli K-2 [8] | MIC Escherichia coli K-3 [8] | MIC Proteus vulgaris [9] | MIC Shigella sonnei JS 11232 [10] | MIC Shigella sonnei JS 11755 [10] | MIC Shigella flexneri JS 11215 [11] | MIC Shigella flexneri JS 11839 [11] | MIC Proteus vulgaris 3027 [13] | MIC Esche--richin coil NIHJ [14] | other results
1 | CCCN1CCN(C(=O)NC(C(=O)NC2C(=O)N3C2SC(C)(C)C3C(=O)O)c2ccccc2)C(=O)C1=O (single isomer, unassigned) [Compound 38] | 15% | 1.57 µg/mL (≈ 2.95 µM) | > 200 µg/mL | 3.13 µg/mL (≈ 5.89 µM) | 3.13 µg/mL (≈ 5.89 µM) | < 0.4 µg/mL | < 0.4 µg/mL | 3.13 µg/mL (≈ 5.89 µM) | 200 µg/mL (≈ 376 µM) | 3.13 µg/mL (≈ 5.89 µM) | > 200 µg/mL | 3.13 µg/mL (≈ 5.89 µM) | > 200 µg/mL | < 0.4 µg/mL | 50 µg/mL (≈ 94.1 µM) | 3.13 µg/mL (≈ 5.89 µM) | 25 µg/mL (≈ 47 µM) | 1.57 µg/mL (≈ 2.95 µM) | 0.4 µg/mL (≈ 0.752 µM) | < 0.1 µg/mL | MIC Staphylococcus aureus MS 8684 [2]: 3.13 µg/mL (≈ 5.89 µM); MIC Klebsiella pneumoniae GN 4081 [5]: 50 µg/mL (≈ 94.1 µM); MIC Klebsiella pneumoniae GN 4117 [5]: 50 µg/mL (≈ 94.1 µM); MIC Pseudomonas aeruginosa GN 82 ([6]; Table 5-3, clinical isolate): 3.13 µg/mL (≈ 5.89 µM); MIC Pseudomonas aeruginosa GN 163 ([6]; Table 5-3, clinical isolate): 3.13 µg/mL (≈ 5.89 µM); MIC Pseudomonas aeruginosa GN 376 ([6]; Table 5-3, clinical isolate): 3.13 µg/mL (≈ 5.89 µM); MIC Pseudomonas aeruginosa GN 1091 ([6]; Table 5-3, clinical isolate): 3.13 µg/mL (≈ 5.89 µM); MIC Escherichia coli GN 3452 [8]: 3.13 µg/mL (≈ 5.89 µM); MIC Escherichia coli GN 3465 [8]: 50 µg/mL (≈ 94.1 µM); MIC Escherichia coli K-1 [8]: 3.13 µg/mL (≈ 5.89 µM); MIC Klebsiella pneumoniae [12]: 3.13 µg/mL (≈ 5.89 µM); MIC Staphylococcus aureus 209p [15]: 0.4 µg/mL (≈ 0.752 µM)
2 | CCCCN1CCN(C(=O)NC(C(=O)NC2C(=O)N3C2SC(C)(C)C3C(=O)O)c2ccccc2)C(=O)C1=O (single isomer, unassigned) [Compound 39] | 15% | 1.57 µg/mL (≈ 2.88 µM) | > 200 µg/mL | 1.57 µg/mL (≈ 2.88 µM) | 1.57 µg/mL (≈ 2.88 µM) | < 0.4 µg/mL | < 0.4 µg/mL | 1.57 µg/mL (≈ 2.88 µM) | 100 µg/mL (≈ 183 µM) | 1.57 µg/mL (≈ 2.88 µM) | > 200 µg/mL | 1.57 µg/mL (≈ 2.88 µM) | > 200 µg/mL | < 0.4 µg/mL | 25 µg/mL (≈ 45.8 µM) | 1.57 µg/mL (≈ 2.88 µM) | 25 µg/mL (≈ 45.8 µM) | 0.79 µg/mL (≈ 1.45 µM) | 0.4 µg/mL (≈ 0.733 µM) | < 0.1 µg/mL | MIC Staphylococcus aureus F-3 [2]: 1.57 µg/mL (≈ 2.88 µM); MIC Escherichia coli K-1 [8]: 1.57 µg/mL (≈ 2.88 µM); MIC Klebsiella pneumoniae [12]: 1.57 µg/mL (≈ 2.88 µM); MIC Staphylococcus aureus 209p [15]: 0.4 µg/mL (≈ 0.733 µM)
3 | CCCCCN1CCN(C(=O)NC(C(=O)NC2C(=O)N3C2SC(C)(C)C3C(=O)O)c2ccccc2)C(=O)C1=O (single isomer, unassigned) [Compound 45] | 16% | 1.57 µg/mL (≈ 2.81 µM) | > 200 µg/mL |  |  | < 0.4 µg/mL |  | 1.57 µg/mL (≈ 2.81 µM) | 200 µg/mL (≈ 357 µM) | 1.57 µg/mL (≈ 2.81 µM) | > 200 µg/mL | 1.57 µg/mL (≈ 2.81 µM) | 200 µg/mL (≈ 357 µM) | < 0.4 µg/mL | 25 µg/mL (≈ 44.7 µM) | 1.57 µg/mL (≈ 2.81 µM) | 25 µg/mL (≈ 44.7 µM) | 1.57 µg/mL (≈ 2.81 µM) | 0.4 µg/mL (≈ 0.715 µM) | < 0.1 µg/mL | MIC Staphylococcus aureus F-3 [2]: 1.57 µg/mL (≈ 2.81 µM); MIC Pseudomonas aeruginosa GN 1035 ([6]; Table 5-3, clinical isolate): 50 µg/mL (≈ 89.3 µM); MIC Pseudomonas neruginosa S-3 ([6]; Table 5-4, clinical isolate): 50 µg/mL (≈ 89.3 µM); MIC Escherichia coli GN 3452 [8]: 1.57 µg/mL (≈ 2.81 µM)
